Test results from patent US10463644B2, “Uses of sesquiterpene lactone compounds and their derivatives in drugs preparation” (ACCENDATECH, priority 2013, dated 2019).
Read-outs that look alike come from different tables or passages of the source.

What was measured:
[1] = test system: PGE2 secreted by synoviocyte; assay: Content of PGE2 in culture supernatant of synoviocyte of RA model rats given test compound; type: in vivo; conditions: rat RA model, dose 30 mg/kg.2d; normal control 8.34 ± 1.29, NaCl 32.44 ± 10.32
In short: (§1)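 Animals with induced RA are grouped and dosed with compound (30 mg/kg.2d) alongside NaCl and normal controls. Synoviocytes are prepared and cultured, and supernatants are harvested. TNF-α and PGE2 secretion are then quantified by one procedure, IL-1β by another.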

[2] = test system: IL-1β secreted by synoviocyte; assay: Content of IL-1β in culture supernatant of synoviocyte of RA model rats given test compound; type: in vivo; conditions: rat RA model, dose 30 mg/kg.2d; normal control 0.16 ± 0.034, NaCl 0.49 ± 0.136
In short: as §1

cancer cells = assay: Survival rate of cancer cells after test compound is added (flow cytometry, Annexin V-FITC/PI, clinical specimen); type: cell-based, patient; conditions: Homo sapiens, 18 h, read-out: Survival rate (%) All cells (Stem cells and ordinary cells)
In short: (§2)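 Patient tumour or leukaemia cells, identified by cancer-specific stem-cell markers (CD34+/CD38+ for AML), are treated with compound for 18 hours in serum-free IMDM. Apoptosis is then measured as Annexin V-FITC/PI staining by flow cytometry.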

[3] = test system: TNF-α secreted by synoviocyte; assay: Content of TNF-α in culture supernatant of synoviocyte of RA model rats given test compound; type: in vivo; conditions: rat RA model, dose 30 mg/kg.2d; normal control 0.38 ± 0.027, NaCl 0.74 ± 0.098
In short: as §1

cancer stem cells = assay: Survival rate of cancer stem cells after test compound is added (flow cytometry, Annexin V-FITC/PI, clinical specimen); type: cell-based, patient; conditions: Homo sapiens, 18 h
In short: as §2

[4] = Head and neck squamous cell carcinomas

## C=C1C(=O)O[C@@H]2[C@H]3C(C)=CC[C@@]34O[C@@]4(C)CC[C@@H]12 [Compound 50]
[1]
  Content of PGE2 in culture supernatant of synoviocyte (x ± s): 19.83 ± 1.78 ng/mL
[2]
  Content of IL-1β in culture supernatant of synoviocyte (x ± s): 0.34 ± 0.061 ng/mL
Cancer cells; AML
  viability at 10 µM: 57%
  viability at 20 µM: 47%
Cancer cells; Brain glioma
  viability at 10 µM: 74%
  viability at 20 µM: 58%
Cancer cells; Brain tumor
  viability at 10 µM: 72%
  viability at 20 µM: 63%
Cancer cells; Breast cancer
  viability at 10 µM: 75%
  viability at 20 µM: 65%
Cancer cells; CLL
  viability at 10 µM: 58%
  viability at 20 µM: 47%
Cancer cells; CML
  viability at 10 µM: 64%
  viability at 20 µM: 58%
Cancer cells; Children hepatoblastoma
  viability at 10 µM: 55%
  viability at 20 µM: 47%
Cancer cells; Colon adenocarcinoma
  viability at 10 µM: 55%
  viability at 20 µM: 49%
Cancer cells; Colorectal cancer
  viability at 10 µM: 76%
  viability at 20 µM: 66%
Cancer cells; Gastric cancer
  viability at 10 µM: 54%
  viability at 20 µM: 48%
Cancer cells; Gastrointestinal tumor
  viability at 10 µM: 64%
  viability at 20 µM: 53%
Cancer cells; Glioma
  viability at 10 µM: 74%
  viability at 20 µM: 56%
Cancer cells; [4]
  viability at 10 µM: 67%
  viability at 20 µM: 58%
Cancer cells; Laryngeal cancer
  viability at 10 µM: 75%
  viability at 20 µM: 64%
Cancer cells; Liver cancer
  viability at 10 µM: 66%
  viability at 20 µM: 54%
Cancer cells; Lung adenocarcinoma
  viability at 10 µM: 57%
  viability at 20 µM: 47%
Cancer cells; Lung cancer
  viability at 10 µM: 54%
  viability at 20 µM: 47%
Cancer cells; Malignant melanoma
  viability at 10 µM: 82%
  viability at 20 µM: 66%
Cancer cells; Nasopharynx cancer
  viability at 10 µM: 54%
  viability at 20 µM: 48%
Cancer cells; Ovarian cancer
  viability at 10 µM: 77%
  viability at 20 µM: 67%
Cancer cells; Pancreatic cancer
  viability at 10 µM: 64%
  viability at 20 µM: 49%
Cancer cells; Prostate cancer
  viability at 10 µM: 66%
  viability at 20 µM: 54%
Cancer cells; Retinoblastoma
  viability at 10 µM: 65%
  viability at 20 µM: 53%
Cancer cells; Skin cancer
  viability at 10 µM: 66%
  viability at 20 µM: 58%
[3]
  Content of TNF-α in culture supernatant of synoviocyte (x ± s): 0.52 ± 0.064 ng/mL
Cancer stem cells; AML
  viability at 10 µM: 45%
  viability at 20 µM: 36%
Cancer stem cells; Brain glioma
  viability at 10 µM: 63%
  viability at 20 µM: 47%
Cancer stem cells; Brain tumor
  viability at 10 µM: 62%
  viability at 20 µM: 54%
Cancer stem cells; Breast cancer
  viability at 10 µM: 64%
  viability at 20 µM: 52%
Cancer stem cells; CLL
  viability at 10 µM: 47%
  viability at 20 µM: 36%
Cancer stem cells; CML
  viability at 10 µM: 57%
  viability at 20 µM: 46%
Cancer stem cells; Children hepatoblastoma
  viability at 10 µM: 42%
  viability at 20 µM: 34%
Cancer stem cells; Colon adenocarcinoma
  viability at 10 µM: 43%
  viability at 20 µM: 35%
Cancer stem cells; Colorectal cancer
  viability at 10 µM: 64%
  viability at 20 µM: 55%
Cancer stem cells; Gastric cancer
  viability at 10 µM: 45%
  viability at 20 µM: 37%
Cancer stem cells; Gastrointestinal tumor
  viability at 10 µM: 55%
  viability at 20 µM: 44%
Cancer stem cells; Glioma
  viability at 10 µM: 62%
  viability at 20 µM: 45%
Cancer stem cells; [4]
  viability at 10 µM: 56%
  viability at 20 µM: 47%
Cancer stem cells; Laryngeal cancer
  viability at 10 µM: 64%
  viability at 20 µM: 53%
Cancer stem cells; Liver cancer
  viability at 10 µM: 53%
  viability at 20 µM: 46%
Cancer stem cells; Lung adenocarcinoma
  viability at 10 µM: 46%
  viability at 20 µM: 36%
Cancer stem cells; Lung cancer
  viability at 10 µM: 43%
  viability at 20 µM: 33%
Cancer stem cells; Malignant melanoma
  viability at 10 µM: 64%
  viability at 20 µM: 54%
Cancer stem cells; Nasopharynx cancer
  viability at 10 µM: 44%
  viability at 20 µM: 37%
Cancer stem cells; Ovarian cancer
  viability at 10 µM: 62%
  viability at 20 µM: 55%
Cancer stem cells; Pancreatic cancer
  viability at 10 µM: 53%
  viability at 20 µM: 43%
Cancer stem cells; Prostate cancer
  viability at 10 µM: 54%
  viability at 20 µM: 41%
Cancer stem cells; Retinoblastoma
  viability at 10 µM: 54%
  viability at 20 µM: 44%
Cancer stem cells; Skin cancer
  viability at 10 µM: 57%
  viability at 20 µM: 43%
